According to patent publication US20250332143A1, “COMPOSITION COMPRISING ALOX5 INHIBITOR FOR PREVENTING OR TREATING SARCOPENIA” (PLUTO Inc., priority 2022, published 2025):

Key:
[1] = system: Dex-treated C2C12 myotubes; test: Dex-induced myotube atrophy, myosin heavy chain immunostaining, myotube diameter; assay type: cell-based, mouse; settings: 10 μM Dex 24 h; for diameter of muscle fibers (C2C12 myotubes): zileuton 10 µM, wedelolactone 20 μM (FIGS. 2, 3)
Description: (§1) C2C12 murine skeletal muscle myoblasts were obtained from Koram Biotech (Republic of Korea). The cells were maintained in DMEM growth medium supplemented with 10% FBS, 1% penicillin, and streptomycin. When myoblasts proliferated to approximately 90%, they were differentiated into muscle fibers by treating them with DMEM differentiation medium supplemented with 2% HS, 1% penicillin, and streptomycin for 96 hours. Differentiated muscle fibers were treated with 10 μM Dex for 24 hours to induce sarcopenia. To evaluate the degree of differentiation of muscle cells, differentiating myoblasts were treated with the corresponding compound in differentiation medium for 24 or 48 hours.
Muscle fibers were stained using immunochemical staining using myosin heavy chain antibody. Specifically, the muscle fibers were rinsed three times with PBS and then fixed with a 3.7% formaldehyde solution. After rinsing with PBS, a transparency process was performed with 0.2% TritonX-100 solution, and additional rinsing was performed with PBS. They were blocked with 1% bovine serum albumin solution (1% BSA in PBS-T) and incubated with primary antibody overnight at 4° C. After washing with PBS, the secondary antibody was treated for 1 hour. Afterwards, the myotubes were counterstained with 1 μM DAPI in PBS. Fluorescence images of stained myotubes in five different areas were obtained using a DMI 3000 B microscope (Leica, Germany) and analyzed using ImageJ 1.52 software (National Institutes of Health, Bethesda, MD, USA). Myotubes were classified as myosin heavy chain positive cells containing four or more nuclei, and the diameter of muscle fibers containing four or more nuclei was measured.

[2] = system: Atrogin-1 and MuRF-1; test: qPCR of muscle atrophy regulators in Dex-treated C2C12 myotubes; assay type: cell-based, mouse
Description: as §1
For quantitative real-time PCR, transcript levels of genes of interest were analyzed using the StepOnePlus real-time PCR system (Applied Biosystems, UK). Total RNA was reverse transcribed to prepare cDNA using AccuPower® RT PreMix (Bioneer Corporation). The obtained cDNA was subjected to real-time PCR according to the manufacturer's instructions with the following changes. PCR was performed in triplicate in a total volume of 20 μL 2× Power SYBR Green PCR Master Mix (Enzynomics, Republic of Korea) containing 200 nM (final concentration) of each specific primer and 1 μL of cDNA synthesized from 1 μg of total RNA. PCR amplification consisted of incubating the mixture at 95° C. for 10 minutes, followed by 40 cycles of denaturation, annealing, and extension. Denaturation was performed at 95° C. for 15 s, annealing was performed at 60° C. for 1 min, and extension was performed at 72° C. for 20 s with fluorescence detection at 72° C. after each cycle. After the final cycle, melting point analysis of all samples was performed within the range of 60 to 95° C. using continuous fluorescence detection. Specific cDNA samples were included in each run and used as reference material for comparison between runs. The expression level of GAPDH was used to calculate and normalize the expression levels of all other genes. Results were expressed as relative expression levels for each gene. The synthesized cDNA was amplified by quantitative real-time PCR (qRT-PCR) or standard PCR.

Structure (SMILES)	myotube atrophy in Dex-treated myotubes ([1]; C2C12 myotubes)	Atrogin-1 expression (mRNA, qPCR) [2]	diameter of muscle fibers (C2C12 myotubes) [1]	MuRF-1 expression (mRNA, qPCR) [2]
CCCCC/C=C\C[C@@H](O)/C=C/C=C/C=C\[C@@H](O)CCCC(=O)O [LTB4, Leukotriene B4]	did not affect	did not affect		
COc1cc(O)c2c(c1)oc(=O)c1c3cc(O)c(O)cc3oc21 [wedelolactone, Wedelolactone]		decreased	recovered	decreased
CC(c1cc2ccccc2s1)N(O)C(N)=O (centres unmarked) [zileuton, Zileuton]		decreased	recovered	decreased
